Test results taken from the NIST ThermoML archive (doi:10.1021/acs.jced.8b00250).
Numbers after ± are expanded uncertainties.

Assay: mn = molality of the nth substance listed, in mol/kg
Settings: 298.15 K, 101.3 kPa, Liquid, Alternating current cell with electrodes

CCCCC(CC)COC(=O)CC(C(=O)OCC(CC)CCCC)S(=O)(=O)[O-].[Na+] (stereo unspecified) [sodium bis(2-ethylhexyl) sulfosuccinate] + O
Settings | electrical conductivity [S/m]
m1 = 0.1687 | 0.00147 ± 5.9e-05
m1 = 0.5229 | 0.00389 ± 0.00016
m1 = 0.8008 | 0.00578 ± 0.00023
m1 = 1.108 | 0.00786 ± 0.00031
m1 = 1.374 | 0.00965 ± 0.00039
m1 = 1.663 | 0.0116 ± 0.00046
m1 = 2.015 | 0.0139 ± 0.00056
m1 = 2.327 | 0.0161 ± 0.00065
m1 = 2.661 | 0.0184 ± 0.00074
m1 = 3.026 | 0.0213 ± 0.0009
m1 = 3.398 | 0.0239 ± 0.001
m1 = 3.654 | 0.0258 ± 0.001
m1 = 3.95 | 0.0279 ± 0.0011
m1 = 4.202 | 0.0296 ± 0.0012
m1 = 4.434 | 0.0313 ± 0.0013
m1 = 4.65 | 0.0328 ± 0.0013
m1 = 4.896 | 0.0345 ± 0.0014
m1 = 5.165 | 0.0363 ± 0.0015
m1 = 5.513 | 0.0387 ± 0.0015
m1 = 5.782 | 0.0405 ± 0.0016

O [water] + CCCCC(CC)COC(=O)CC(C(=O)OCC(CC)CCCC)S(=O)(=O)[O-].[Na+]
Settings | electrical conductivity [S/m]
m2 = 0 | 0.000327 ± 1.3e-05
